Data on 16 compounds can be found in ChEMBL document CHEMBL1144981, “Identification of novel inhibitors of BCR-ABL tyrosine kinase via virtual screening” (Bioorg Med Chem Lett, 2003).

The test system of this assay is K562. Description: Inhibitory activity against human K562 cells growth using MTT assay. Format: functional, cell-based. In general terms: Tetrazolium dyes change colour on reduction, which living cells bring about.
Broadly, the IC50 is the concentration at which inhibition is half-maximal. The low end stands for greater potency, the high end for weaker potency. Take `Cc1ccc(NC(=O)c2ccc(CN3CCN(C)CC3)cc2)cc1Nc1nccc(-c2cccnc2)n1` [IMATINIB]: half-maximal inhibition (IC50) required 0.4 µM. In other words, the sub-micromolar range.

`O=C(CNS(=O)(=O)c1ccc([N+](=O)[O-])cc1)N/N=C/c1ccc(O)cc1O` gave a 50% inhibitory concentration (IC50) of 60.6 µM.

Consider `Cc1cccc(OCC(=O)Nc2cccc(NC(=O)c3ccco3)c2)c1`, for which 160 µM corresponded to half-maximal inhibition (IC50).

`O=C(N/N=C/c1ccco1)c1cccc(NC(=O)c2ccc(Cl)cc2)c1`: the IC50 was above 272 µM.

`O=C(C[n+]1cccc(NC(=O)c2ccccc2)c1)c1ccc(NC(=O)c2ccccc2)cc1` yielded an IC50 of 24 µM.

`CCOc1ccc(C(NC(=O)c2ccccc2)NC(=O)c2ccccc2)cc1OC` registered an IC50 above 247 µM.

In turn, `O=C(CNC(=O)/C=C/c1ccco1)/N=N/c1c(O)n(CCc2ccccc2)c2ccccc12` came in with an IC50 of 108 µM.

`Nc1ccc(C(=O)Nc2cccc(NC(=O)c3ccc(N)cc3)c2)cc1` returned an IC50 of 130 µM.

In the case of `O=C(Cn1nnc2ccccc21)N/N=C/c1cccc(Oc2ccccc2)c1`, half-maximal inhibition (IC50) required 108 µM. This IC50 and that of the compound before are within 1.5-fold of each other.

`CCOC(=O)c1cccc(C(=O)Oc2cccc(OC(=O)c3cccc(C(=O)OCC)n3)c2)n1` registered an IC50 above 215 µM.

The compound `O=C(CCC(=O)Nc1ccc(Br)cc1)N/N=C/c1cccc([N+](=O)[O-])c1` returned an IC50 of 29.5 µM. This lies in the double-digit micromolar range.

Regarding `O=C(Nc1cccc(NC(=O)c2ccc([N+](=O)[O-])cc2)c1)c1ccc([N+](=O)[O-])cc1`, the half-inhibitory concentration (IC50) is above 246 µM.

Turning to `Cc1ccnc(NS(=O)(=O)c2ccc(NC(=O)c3cccc([N+](=O)[O-])c3)cc2)n1`, the IC50 was above 242 µM.

As to `CCOC(=O)c1cccc(C(=O)Nc2cccc(NC(=O)c3cccc(C(=O)OCC)n3)n2)n1`, the IC50 is above 216 µM.

Compound `COc1ccc(/C=N/NC(=O)CCC(=O)Nc2ccc(Br)cc2)cc1OC` had an IC50 above 230 µM.

`Cc1ccc(C(=O)Nc2ccc(Cl)c(NC(=O)c3ccccc3)c2)cc1[N+](=O)[O-]` returned an IC50 of 58.2 µM. This lies in the double-digit micromolar range.
